In brackets after ≈: the same amount, converted by molar mass.
Tests used:
[1] = test system: Mycobacterium tuberculosis; test: Antimycobacterial activity against Mycobacterium tuberculosis H37Rv ATCC 27294 after 5 days by microplate alamar blue assay; assay type: functional; conditions: H37Rv ATCC 27294, 120 h
HEK293 = test: Cytotoxicity against human HEK293 cells after 36 hrs by MTT assay; assay type: cell-based; conditions: HEK293, 36 h
Staphylococcus aureus = test: Antibacterial activity against Staphylococcus aureus by agar dilution method; assay type: functional
Escherichia coli = test: Antibacterial activity against Escherichia coli by agar dilution method; assay type: functional
Klebsiella pneumoniae = test: Antibacterial activity against Klebsiella pneumoniae by agar dilution method; assay type: functional
Pseudomonas aeruginosa = test: Antibacterial activity against Pseudomonas aeruginosa by agar dilution method; assay type: functional
Proteus vulgaris = test: Antibacterial activity against Proteus vulgaris by agar dilution method; assay type: functional
Proteus mirabilis = test: Antibacterial activity against Proteus mirabilis by agar dilution method; assay type: functional
Serratia marcescens = test: Antibacterial activity against Serratia marcescens by agar dilution method; assay type: functional
[2] = test system: Acinetobacter calcoaceticus; test: Antibacterial activity against Acinetobacter calcoaceticus by agar dilution method; assay type: functional

| SMILES | MIC90 [1] [µg/mL] | IC50 (HEK293) [µg/mL] | other results |
| --- | --- | --- | --- |
| O=C(c1ccc2c(c1)OCCO2)C1CCN(Cc2coc(-c3cccnc3)n2)CC1 | 32 (≈ 78.9 µM) | > 150 |  |
| O=C(c1ccc2c(c1)OCCO2)C1CCN(Cc2coc(-c3ccccc3F)n2)CC1 | 8 (≈ 18.9 µM) | > 150 |  |
| O=C(c1ccc2c(c1)OCCO2)C1CCN(Cc2coc(-c3ccc(Cl)cc3)n2)CC1 | 2 (≈ 4.56 µM) | > 150 | MIC80 (Staphylococcus aureus): > 128 µg/mL; MIC80 (Escherichia coli): > 128 µg/mL; MIC80 (Klebsiella pneumoniae): > 128 µg/mL; MIC80 (Pseudomonas aeruginosa): > 128 µg/mL; MIC80 (Proteus vulgaris): > 128 µg/mL; MIC80 (Proteus mirabilis): > 128 µg/mL; MIC80 (Serratia marcescens): > 128 µg/mL; MIC80 [2]: > 128 µg/mL |
| CO[C@H]1/C=C/O[C@@]2(C)Oc3c(C)c(O)c4c(O)c(c(/C=N/N5CCN(C)CC5)c(O)c4c3C2=O)NC(=O)/C(C)=C\C=C\[C@H](C)[C@H](O)[C@@H](C)[C@@H](O)[C@@H](C)[C@H](OC(C)=O)[C@@H]1C [RIFAMPIN] | < 0.5 |  |  |
| O=C(c1ccc2c(c1)OCCO2)C1CCN(Cc2coc(-c3ccco3)n2)CC1 | 16 (≈ 40.6 µM) | > 150 |  |
| COc1ccc(C(=O)C2CCN(Cc3coc(-c4ccc(F)cc4)n3)CC2)cc1OC | 8 (≈ 18.8 µM) | > 150 |  |
| O=C(c1ccc2c(c1)CCCC2)C1CCN(Cc2coc(-c3ccc(F)cc3)n2)CC1 | 1 (≈ 2.39 µM) | > 150 | MIC80 (Staphylococcus aureus): > 128 µg/mL; MIC80 (Escherichia coli): > 128 µg/mL; MIC80 (Klebsiella pneumoniae): > 128 µg/mL; MIC80 (Pseudomonas aeruginosa): > 128 µg/mL; MIC80 (Proteus vulgaris): > 128 µg/mL; MIC80 (Proteus mirabilis): > 128 µg/mL; MIC80 (Serratia marcescens): > 128 µg/mL; MIC80 [2]: > 128 µg/mL |
| O=C(c1ccc2c(c1)OCCO2)C1CCN(Cc2coc(-c3ccc(F)cc3)n2)CC1 | 8 (≈ 18.9 µM) | > 150 |  |
| Cc1ccc(C(=O)C2CCN(Cc3coc(-c4ccc(F)cc4)n3)CC2)cc1 | 4 (≈ 10.6 µM) | > 150 |  |
| COc1ccc(-c2nc(CN3CCC(C(=O)c4ccc5c(c4)OCCO5)CC3)co2)cc1 | 8 (≈ 18.4 µM) | > 150 |  |
| O=C(c1ccc2c(c1)OCCO2)C1CCN(Cc2coc(-c3ccccc3)n2)CC1 | 4 (≈ 9.89 µM) | > 150 |  |
| O=C(c1ccccc1)C1CCN(Cc2coc(-c3ccc(F)cc3)n2)CC1 | 2 (≈ 5.49 µM) | > 150 |  |
| O=C(c1ccc2c(c1)OCCO2)C1CCN(Cc2coc(-c3ccc(Br)cc3)n2)CC1 | 8 (≈ 16.6 µM) | > 150 |  |
| O=C(c1ccc2c(c1)OCCO2)C1CCN(Cc2coc(-c3cccc(F)c3)n2)CC1 | 4 (≈ 9.47 µM) | > 150 |  |
| CC(C)(C)c1ccc(-c2nc(CN3CCC(C(=O)c4ccc5c(c4)OCCO5)CC3)cs2)cc1 | > 128 |  |  |
| COc1ccc(C(=O)C2CCN(Cc3coc(-c4ccc(F)cc4)n3)CC2)cc1 | 4 (≈ 10.1 µM) | > 150 |  |
| O=C(c1ccc(F)c(F)c1)C1CCN(Cc2coc(-c3ccc(F)cc3)n2)CC1 | 2 (≈ 5 µM) | > 150 |  |
| O=C(c1ccc2c(c1)OCCO2)C1CCN(Cc2coc(-c3ccc(F)c(F)c3)n2)CC1 | 8 (≈ 18.2 µM) | > 150 |  |
| O=C(c1ccc2c(c1)OCCO2)C1CCN(Cc2csc(-c3ccc(Cl)cc3)n2)CC1 | > 128 |  |  |
| Cc1ccc(-c2nc(CN3CCC(C(=O)c4ccc5c(c4)OCCO5)CC3)co2)cc1 | 64 (≈ 153 µM) | > 150 |  |
| O=C(c1ccc2c(c1)OCCO2)C1CCN(Cc2coc(-c3ccoc3)n2)CC1 | 32 (≈ 81.1 µM) | > 150 |  |
| CC(C)(C)c1ccc(-c2nc(CN3CCC(C(=O)c4ccc5c(c4)OCCO5)CC3)co2)cc1 | 8 (≈ 17.4 µM) | > 150 | MIC80 (Staphylococcus aureus): > 128 µg/mL; MIC80 (Escherichia coli): > 128 µg/mL; MIC80 (Klebsiella pneumoniae): > 128 µg/mL; MIC80 (Pseudomonas aeruginosa): > 128 µg/mL; MIC80 (Proteus vulgaris): > 128 µg/mL; MIC80 (Proteus mirabilis): > 128 µg/mL; MIC80 (Serratia marcescens): > 128 µg/mL; MIC80 [2]: > 128 µg/mL |
| CN[C@@H]1[C@H](O[C@H]2[C@H](O[C@H]3[C@H](O)[C@@H](O)[C@H](N=C(N)N)[C@@H](O)[C@@H]3N=C(N)N)O[C@@H](C)[C@]2(O)C=O)O[C@@H](CO)[C@H](O)[C@H]1O [STREPTOMYCIN] | < 0.5 |  |  |
| NNC(=O)c1ccncc1 [ISONIAZID] | < 0.5 |  |  |
| CC(C)(C)c1ccc(-c2nc(CN3CCC(C(=O)c4ccc5c(c4)CCCC5)CC3)co2)cc1 | 8 (≈ 17.5 µM) | > 150 |  |
| CC[C@@H](CO)NCCN[C@@H](CC)CO [ETHAMBUTOL] | < 0.5 |  |  |
| O=C(c1ccc2c(c1)OCCO2)C1CCN(Cc2cc(-c3ccc(F)cc3)on2)CC1 | > 128 |  |  |
| Cc1ccc(C(=O)C2CCN(Cc3coc(-c4ccc(F)cc4)n3)CC2)cc1C | 8 (≈ 20.4 µM) | > 150 |  |
| O=C(c1ccc2c(c1)OCCO2)C1CCN(Cc2coc(-c3ccc(C(F)(F)F)cc3)n2)CC1 | 32 (≈ 67.7 µM) | > 150 |  |

From ChEMBL document CHEMBL3627615, “Discovery of the disubstituted oxazole analogues as a novel class anti-tuberculotic agents against MDR- and XDR-MTB” (Bioorg Med Chem Lett, 2015)
